≈ marks a conversion by molar mass, not a printed value. Read-outs that look alike come from different tables or passages of the source.

For series [1], the system named is M. tuberculosis H37Rv. As to the kind of experiment: microbe, parasite or virus in culture. Type of series: cell-based.
Series [2] relates to HepG2 cells. As to conditions: for Concentration of mild cytotoxicity / TD50 / Cytotoxicity (in words): HepG2 cells; for TD50: 3 days; for Selective index: ratio TD50 (HepG2) to MIC99 (H37Rv).
The nature of series [3]: in vitro. The note with it: for microsomal CLint at 1 μg/ml / microsomal CLint: microsomes, pH 7.4; for Microsomal stability / clearance (in words), human: human microsomes; for Microsomal stability / clearance (in words), mouse: mouse microsomes. On the procedure: The intrinsic clearance (CLint) of compounds was measured in both mouse and human liver microsomes. Briefly, 100 μg of mouse (CD-1) or human liver microsomes (both from Invitrogen) were mixed in 0.1 M phosphate buffer (pH 7.4) containing 0.01 μl of compound dissolved in dimethyl sulfoxide (DMSO) at 10 mg/ml in a final volume of 50 μl. In parallel, an NADPH-regenerating system (Promega) was prepared in 0.1 M phosphate buffer (pH 7.4). […] After 0, 5, 15, 30, and 60 min, the reactions were terminated by transferring […] into 100 μl of acetonitrile and placing the mixture on ice for 30 min for full protein precipitation. […] After 0 and 60 min, the reactions were terminated, prepared and analyzed as previously described.

Series [4] in a line: Water solubility, shake flask method. As to conditions: for solubility at 3 days: 25 °C, water, thermodynamic from solid. It is filed as physicochemical. On the procedure: Water solubility measurements were performed using the shake flask method ([28]). Approximately 1 ml of water was added to 1 mg of compound in an Eppendorf tube, followed by incubation for 3 days at 25°C with shaking at 800 rpm. Suspensions were centrifuged at 16,100 × g for 10 min, and the supernatant was filtered using 0.22-μm-pore size filters. Filtrates were injected onto a high-performance liquid chromatography (HPLC) column (Dionex), and the amount of compound was quantified using a calibration curve.

Where [5] appears, read: Mycobacterium tuberculosis, H37RV, REMA, 7H9 broth, 6 days + 24 h resazurin, read-out: MIC99 H37Rv.
The mark [6] stands for this setting: Mycobacterium tuberculosis, H37Rv, read-out: MIC.

As a reminder, the melting point is the temperature, or range, at which the solid turns liquid. `O=c1nc(N2CCN(S(=O)(=O)c3cc(Cl)c(Cl)s3)CC2)sc2c([N+](=O)[O-])cc(C(F)(F)F)cc12` [compound 11326122]: the melting point was in the range of 265 to 267 °C. For the same molecule, the MIC in series [1] (setting [5]) came out at 0.8 µg/mL.
In general, microsomal CLint refers to a measure of how fast metabolising enzymes remove a compound, apart from limits set by blood flow. Read a high microsomal CLint as rapid turnover. The term solubility denotes how much of the substance goes into solution per volume. `CS(=O)(=O)N1CCN(c2nc(=O)c3cc(C(F)(F)F)cc([N+](=O)[O-])c3s2)CC1` [compound 11626095] came in with a melting point of 186 to 188 °C. Moreover, in series [2], the “Concentration of mild cytotoxicity” value is “around 10 μg/ml”, the TD50 was determined as 7.80 µg/mL and the Selective index is recorded as 390. Besides, the microsomal CLint at 1 μg/ml in series [3] (CD-1, mouse) came out at 0.9 µL/min/mg. Besides, in series [3], the “Microsomal stability / clearance (in words), human” value is recorded as “lowest clearances” and the “Microsomal stability / clearance (in words), mouse” value is “lowest clearances”. The intrinsic clearance (microsomal CLint) at 1 μg/ml in series [3] (human) turned out to be 1 µL/min/mg. Further, the concentration in solution in series [4] (solubility at 3 days) came to 10.6 ± 1.8 µg/mL (≈ 24.2 µM). Moreover, the MIC in series [1] (setting [5]) was found to be 0.02 µg/mL. In addition, the MIC in series [1] (setting [6]) amounted to 0.02 µg/mL (≈ 0.0456 µM).
For `NC(=O)N1c2ccccc2C=Cc2ccccc21` [Carbamazepine, reference compound], the microsomal CLint came out at 0.6 µL/min/mg in series [3] (CD-1, mouse) and 0.4 µL/min/mg in series [3] (human).
In turn, `CCCCS(=O)(=O)N1CCN(c2nc(=O)c3cc(C(F)(F)F)cc([N+](=O)[O-])c3s2)CC1` [compound 11626093] had a melting point of 215 to 219 °C. In series [2], the “Cytotoxicity (in words)” value is “not cytotoxic”, the TD50 is >100 µg/mL and the Selective index is on record as >100,000. In addition, the microsomal CLint at 1 μg/ml in series [3] (CD-1, mouse) was found to be 42 µL/min/mg. In addition, in series [3], the “Microsomal stability / clearance (in words), human” value is listed as “metabolically stable” and the “Microsomal stability / clearance (in words), mouse” value was “highly unstable”. The molecule also yielded a microsomal CLint at 1 μg/ml in series [3] (human) of 6.4 µL/min/mg. For the same molecule, in series [4], the “Times less soluble in water than 11626095, 11626092 and 11626091” value (shortened to “Times less soluble”) is “at least 100 times”; the solubility at 3 days came out at 0.105 ± 0.05 µg/mL (≈ 0.219 µM). Further, in series [1] (H37Rv), the “Fold less active than MCZ (MIC99 relative to MCZ)” value was determined as 5 fold and the MIC came out at 1 µg/mL (≈ 2.08 µM). For the same molecule, the MIC in series [1] (setting [5]) worked out at 0.001 µg/mL.
For `O=c1nc(N2CCN(S(=O)(=O)c3cccs3)CC2)sc2c([N+](=O)[O-])cc(C(F)(F)F)cc12` [compound 11326059], the melting point lay in the range of 210 to 214 °C. In series [2], the “Cytotoxicity (in words)” value is “not cytotoxic”, the TD50 stood at 100 µg/mL and the Selective index is 25,000. In addition, the microsomal CLint at 1 μg/ml in series [3] (CD-1, mouse) worked out at 18.6 µL/min/mg. For the same molecule, in series [3], the “Microsomal stability / clearance (in words), human” value is “medium clearances” and the “Microsomal stability / clearance (in words), mouse” value is recorded as “medium clearances”. Besides, the intrinsic clearance (microsomal CLint) at 1 μg/ml in series [3] (human) was found to be 16.8 µL/min/mg. In addition, in series [4], the “Times less soluble” value was “at least 100 times”; the solubility at 3 days was < 0.01 µg/mL. Moreover, the MIC in series [1] (setting [5]) was found to be 0.004 µg/mL.
The molecule `O=c1nc(N2CCN(S(=O)(=O)c3ccc(C(F)(F)F)cc3)CC2)sc2c([N+](=O)[O-])cc(C(F)(F)F)cc12` [compound 11326123] yielded a melting point of 222 to 225 °C. Further, in series [1] (setting [5]), the MIC turned out to be 0.1 µg/mL.
The molecule `Cc1noc(C)c1S(=O)(=O)N1CCN(c2nc(=O)c3cc(C(F)(F)F)cc([N+](=O)[O-])c3s2)CC1` [compound 11326056] registered a melting point of 265 to 267 °C. Further, the MIC in series [1] (setting [5]) amounted to 0.06 µg/mL.
The like results for `CCn1cc(S(=O)(=O)N2CCN(c3nc(=O)c4cc(C(F)(F)F)cc([N+](=O)[O-])c4s3)CC2)c(C)n1` [compound 11326058] were, in that order, 218 to 220 °C and 0.4 µg/mL.
For `CCC(C)(C)c1ccc(S(=O)(=O)N2CCN(c3nc(=O)c4cc(C(F)(F)F)cc([N+](=O)[O-])c4s3)CC2)cc1` [compound 11326125], the melting point was in the range of 231 to 233 °C. Besides, the MIC in series [1] (setting [5]) amounted to 0.5 µg/mL.
In the case of `CCCCc1ccc(S(=O)(=O)N2CCN(c3nc(=O)c4cc(C(F)(F)F)cc([N+](=O)[O-])c4s3)CC2)cc1` [compound 11326124], the melting point lay in the range of 226 to 229 °C. Also, the MIC in series [1] (setting [5]) came out at 800 µg/mL.
The molecule `Cc1nn(C)cc1S(=O)(=O)N1CCN(c2nc(=O)c3cc(C(F)(F)F)cc([N+](=O)[O-])c3s2)CC1` [compound 11326061] gave a melting point of 200 to 203 °C. The MIC in series [1] (setting [5]) is 0.4 µg/mL.
Turning to `CCS(=O)(=O)N1CCN(c2nc(=O)c3cc(C(F)(F)F)cc([N+](=O)[O-])c3s2)CC1` [compound 11626092], the melting point is 204 to 207 °C. Moreover, in series [2], the “Concentration of mild cytotoxicity” value is recorded as “around 10 μg/ml”, the TD50 is 8.90 µg/mL and the Selective index is recorded as 2,967. This molecule displayed a microsomal CLint at 1 μg/ml in series [3] (CD-1, mouse) of 3 µL/min/mg. In series [3], the “Microsomal stability / clearance (in words), human” value is on record as “lowest clearances” and the “Microsomal stability / clearance (in words), mouse” value is “lowest clearances”. Moreover, the microsomal CLint at 1 μg/ml in series [3] (human) turned out to be 1.4 µL/min/mg. This molecule returned a solubility at 3 days in series [4] of 10.7 ± 4.6 µg/mL (≈ 23.6 µM). In addition, the MIC in series [1] (setting [5]) was found to be 0.003 µg/mL. For the same molecule, the MIC in series [1] (setting [6]) came out at 0.003 µg/mL (≈ 0.00663 µM).
In turn, `COC(=O)c1sccc1S(=O)(=O)N1CCN(c2nc(=O)c3cc(C(F)(F)F)cc([N+](=O)[O-])c3s2)CC1` [compound 11326128] registered a melting point of 127 to 129 °C. Besides, the MIC in series [1] (setting [5]) turned out to be 0.1 µg/mL.
Consider `CO[C@H]1/C=C/O[C@@]2(C)Oc3c(C)c(O)c4c(O)c(c(/C=N/N5CCN(C)CC5)c(O)c4c3C2=O)NC(=O)/C(C)=C\C=C\[C@H](C)[C@H](O)[C@@H](C)[C@@H](O)[C@@H](C)[C@H](OC(C)=O)[C@@H]1C` [Rifampin, reference compound], for which the TD50 in series [2] was 100.00 µg/mL. Besides, the MIC in series [1] (setting [5]) was found to be 0.0008 µg/mL.
For the molecule `CC(=O)c1ccc(S(=O)(=O)N2CCN(c3nc(=O)c4cc(C(F)(F)F)cc([N+](=O)[O-])c4s3)CC2)cc1` [compound 11326119], the melting point lay within 280 to 282 °C. Further, the MIC in series [1] (setting [5]) turned out to be 50 µg/mL.
As to `O=c1nc(N2CCN(S(=O)(=O)c3ccc(Cl)s3)CC2)sc2c([N+](=O)[O-])cc(C(F)(F)F)cc12` [compound 11326121], the melting point is 210 to 213 °C. Further, the MIC in series [1] (setting [5]) was 0.03 µg/mL.
For `Cc1oncc1S(=O)(=O)N1CCN(c2nc(=O)c3cc(C(F)(F)F)cc([N+](=O)[O-])c3s2)CC1` [compound 11326126] the same measures were 281 to 283 °C and 1.6 µg/mL.
`O=c1nc(N2CCN(S(=O)(=O)C3CCCCC3)CC2)sc2c([N+](=O)[O-])cc(C(F)(F)F)cc12` [compound 11326127]: in series [2], the “Cytotoxicity (in words)” value is “not cytotoxic” and the TD50 was >100 µg/mL. The same molecule gave a microsomal CLint at 1 μg/ml in series [3] (CD-1, mouse) of 19 µL/min/mg. For the same molecule, in series [3], the “Microsomal stability / clearance (in words), human” value is listed as “medium clearances” and the “Microsomal stability / clearance (in words), mouse” value is “medium clearances”. Further, in series [3] (human), the intrinsic metabolic clearance (microsomal CLint) at 1 μg/ml came out at 21.5 µL/min/mg. In addition, in series [4], the “Times less soluble” value is “at least 100 times”; the solubility at 3 days was < 0.01 µg/mL. In addition, in series [1] (Mycobacterium tuberculosis, H37RV), the MIC99 worked out at 6 nM (≈ 3.04 ng/mL). In addition, the MIC in series [1] (setting [5]) came out at 0.006 µg/mL.
Take `O=c1nc(N2CCN(S(=O)(=O)c3ccc(OC(F)(F)F)cc3)CC2)sc2c([N+](=O)[O-])cc(C(F)(F)F)cc12` [compound 11326120]: the MIC in series [1] (setting [5]) is 0.1 µg/mL.

The values are drawn from paper PMC6153800, “Structure-Based Drug Design and Characterization of Sulfonyl-Piperazine Benzothiazinone Inhibitors of DprE1 from Mycobacterium tuberculosis” (Antimicrobial Agents and Chemotherapy, 2018).
